Assay results taken from patent US7846697B2, “Method of producing a low molecular weight organic compound in a cell” (BLMaps, priority 2003, dated 2010).

How the values were obtained:
[1] = Halkier and Møller, 1989; cited from earlier work

| Compound | toxicity to microbial organisms compared with the aglycon vanillin (microbial organisms) | stability in aqueous solutions [1] |
| --- | --- | --- |
| COc1cc(C=O)ccc1O[C@@H]1O[C@H](CO)[C@@H](O)[C@H](O)[C@H]1O [vanillin glucoside, vanillin-β-D-glucoside] | much less toxic |  |
| N#CC(O)c1ccc(O)cc1 (centres unmarked) [p-hydroxymandelonitrile] |  | highly unstable |
